Data as given in ChEMBL document CHEMBL1201862, “PubChem BioAssay data set” (2004).
The source made the active and inactive calls.

Tests used:
Estrogen receptor beta = Estrogen receptor beta (Homo sapiens, UniProt Q92731);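 further: recombinant ER-beta bound to coactivator SRC1 peptide in presence of estradiol agonist; inhibitors block coactivator peptide binding and lower the FRET signal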
[1] = biological target: Disintegrin and metalloproteinase domain-containing protein 17 (Homo sapiens, UniProt P78536); experiment: inhibition of ADAM17 substrate cleavage – biochemical, quenched FRET substrate, counter-screen for ADAM10 exosite inhibitor project, dose response (AID 743253)
Chain of Disintegrin and metalloproteinase domain-containing protein 17 (P78536 whole entry, the tested form may be a part): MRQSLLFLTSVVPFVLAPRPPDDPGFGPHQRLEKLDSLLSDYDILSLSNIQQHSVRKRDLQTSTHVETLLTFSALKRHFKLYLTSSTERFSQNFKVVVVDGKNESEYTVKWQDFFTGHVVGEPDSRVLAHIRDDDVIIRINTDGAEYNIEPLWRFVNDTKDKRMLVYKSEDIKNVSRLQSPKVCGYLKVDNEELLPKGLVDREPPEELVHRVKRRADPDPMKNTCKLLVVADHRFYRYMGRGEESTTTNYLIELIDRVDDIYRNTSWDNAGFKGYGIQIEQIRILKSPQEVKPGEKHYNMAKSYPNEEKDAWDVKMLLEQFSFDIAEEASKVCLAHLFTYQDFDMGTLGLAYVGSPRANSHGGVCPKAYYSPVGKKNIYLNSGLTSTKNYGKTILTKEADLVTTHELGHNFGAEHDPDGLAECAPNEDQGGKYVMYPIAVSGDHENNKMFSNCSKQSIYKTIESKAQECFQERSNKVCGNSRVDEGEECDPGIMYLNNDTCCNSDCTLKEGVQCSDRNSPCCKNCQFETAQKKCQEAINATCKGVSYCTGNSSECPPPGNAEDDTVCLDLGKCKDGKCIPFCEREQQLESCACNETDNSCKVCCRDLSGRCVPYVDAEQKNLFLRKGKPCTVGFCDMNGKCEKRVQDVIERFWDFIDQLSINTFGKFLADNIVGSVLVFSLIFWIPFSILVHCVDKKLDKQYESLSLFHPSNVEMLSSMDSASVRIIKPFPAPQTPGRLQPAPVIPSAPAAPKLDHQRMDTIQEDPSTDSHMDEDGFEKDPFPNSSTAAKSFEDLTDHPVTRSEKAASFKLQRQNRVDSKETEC

[2] = potency of ADAM10 substrate cleavage blockers – biochemical, QFRET, dose response (AID 743254);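 further: ADAM10 enzyme with the DM2 quenched FRET peptide as substrate; EDANS fluorescence gain as the protease cuts the substrate; inhibitor potency against ADAM10 proteolytic activity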
[3] = biological target: E3 ubiquitin-protein ligase Mdm2 (Homo sapiens, UniProt Q00987); experiment: MDM2-luc reporter signal enhancers, multi-concentration potency testing, MDM2 ubiquitin-protein ligase inhibitor program, whole-cell format, luminescence detection, 384-well microplate (AID 1394); type: functional;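 further: MDM2 E3 inhibitors raise luminescence so EC50 is for signal enhancement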
Chain of E3 ubiquitin-protein ligase Mdm2 (Q00987 whole entry): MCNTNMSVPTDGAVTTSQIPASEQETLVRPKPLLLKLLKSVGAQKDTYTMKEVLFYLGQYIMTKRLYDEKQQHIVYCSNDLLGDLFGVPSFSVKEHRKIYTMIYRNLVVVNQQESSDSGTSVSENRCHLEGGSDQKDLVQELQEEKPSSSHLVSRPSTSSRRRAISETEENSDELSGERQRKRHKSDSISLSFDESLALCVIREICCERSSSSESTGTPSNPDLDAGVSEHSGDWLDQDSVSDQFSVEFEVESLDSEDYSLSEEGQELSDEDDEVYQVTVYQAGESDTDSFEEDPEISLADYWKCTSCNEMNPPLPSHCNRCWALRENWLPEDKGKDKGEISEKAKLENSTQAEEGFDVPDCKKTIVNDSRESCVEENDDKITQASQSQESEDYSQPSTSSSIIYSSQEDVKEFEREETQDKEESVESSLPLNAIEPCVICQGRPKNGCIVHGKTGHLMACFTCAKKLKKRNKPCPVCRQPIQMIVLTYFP

[4] = biological target: Luciferin 4-monooxygenase (Photinus pyralis, UniProt P08659); experiment: inhibition of purified Photinus pyralis luciferase – biochemical, luminescence, dose response (AID 1891)
Chain of Luciferin 4-monooxygenase (P08659 whole entry): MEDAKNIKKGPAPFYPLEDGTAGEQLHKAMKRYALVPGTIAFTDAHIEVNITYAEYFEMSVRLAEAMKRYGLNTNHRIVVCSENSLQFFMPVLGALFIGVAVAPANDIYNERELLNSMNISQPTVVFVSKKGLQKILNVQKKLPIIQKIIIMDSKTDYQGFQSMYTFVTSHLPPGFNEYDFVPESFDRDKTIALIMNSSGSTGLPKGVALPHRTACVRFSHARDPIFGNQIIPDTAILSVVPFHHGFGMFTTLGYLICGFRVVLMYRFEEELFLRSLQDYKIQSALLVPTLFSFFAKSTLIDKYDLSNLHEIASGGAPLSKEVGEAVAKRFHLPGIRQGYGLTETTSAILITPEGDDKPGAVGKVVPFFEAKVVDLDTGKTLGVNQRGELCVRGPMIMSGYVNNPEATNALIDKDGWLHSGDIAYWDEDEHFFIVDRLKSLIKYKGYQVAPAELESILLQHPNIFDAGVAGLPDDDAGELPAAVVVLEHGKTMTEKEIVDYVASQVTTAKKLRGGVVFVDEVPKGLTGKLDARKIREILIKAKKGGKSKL

[5] = Luminescence Cell-Based Dose Confirmation HTS to Identify Inhibitors of Platelet Dense Granule Release. [Related pubchem assays: 1663 (Primary HTS), 1678 (Summary of Project)]; type: functional
[6] = biological target: T1, Methionyl-tRNA synthetase, putative (Trypanosoma brucei brucei, UniProt Q38C91); type: functional, Trypanosoma brucei brucei strain 927/4 GUTat10.1
T1 sequence (Q38C91 whole entry): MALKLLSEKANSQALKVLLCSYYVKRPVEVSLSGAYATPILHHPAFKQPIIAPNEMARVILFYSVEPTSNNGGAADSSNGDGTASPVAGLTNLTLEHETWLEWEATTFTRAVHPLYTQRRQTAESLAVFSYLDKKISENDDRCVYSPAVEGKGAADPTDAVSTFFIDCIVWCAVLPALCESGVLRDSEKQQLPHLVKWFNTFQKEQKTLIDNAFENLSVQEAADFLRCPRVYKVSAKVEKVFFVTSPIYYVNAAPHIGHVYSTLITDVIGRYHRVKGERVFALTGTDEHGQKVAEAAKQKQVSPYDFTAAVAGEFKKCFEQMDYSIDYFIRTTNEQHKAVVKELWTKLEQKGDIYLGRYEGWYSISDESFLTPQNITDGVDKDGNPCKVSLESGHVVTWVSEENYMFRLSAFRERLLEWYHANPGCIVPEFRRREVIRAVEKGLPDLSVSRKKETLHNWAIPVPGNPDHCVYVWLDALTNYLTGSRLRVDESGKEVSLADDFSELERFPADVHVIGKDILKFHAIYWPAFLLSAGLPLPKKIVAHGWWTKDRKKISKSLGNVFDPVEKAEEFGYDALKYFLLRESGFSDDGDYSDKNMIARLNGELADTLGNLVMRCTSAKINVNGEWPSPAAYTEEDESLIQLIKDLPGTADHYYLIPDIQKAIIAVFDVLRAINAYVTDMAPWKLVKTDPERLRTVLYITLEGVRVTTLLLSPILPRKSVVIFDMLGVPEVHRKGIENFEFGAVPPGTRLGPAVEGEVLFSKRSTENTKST

[7] = Counterscreen for inhibitors of Trypanosoma brucei methionyl tRNA synthetase (MetRS): Luminescence-based cell-based high throughput dose response assay to identify compounds that are cytotoxic to Jurkat human T lymphocyte cells.; type: functional
[8] = biological target: T1, Methionyl-tRNA synthetase, putative; type: functional, Trypanosoma brucei brucei strain 927/4 GUTat10.1; remark: listed apart in the source
[9] = Late stage counterscreen for inhibitors of Trypanosoma brucei methionyl tRNA synthetase (MetRS): Luminescence-based cell-based high throughput dose response assay to identify compounds that are cytotoxic to Jurkat human T lymphocyte cells.; type: functional
HEK293 = experiment: EBV LMP1 TES2 canonical NF-kB signalling blockers – cell-based, HEK293, luciferase, cherry-pick, dose response (AID 588343); type: functional; settings: Homo sapiens
[10] = biological target: T2, Corticotropin-releasing factor receptor 2/Corticotropin-releasing factor-binding protein (Homo sapiens, UniProt P24387+Q13324); experiment: activators of CRF receptor 2 with binding protein – uHTS hits, confirmation (AID 602473); type: functional; settings: read-out: EC50_Mean
T2 sequence (Q13324 whole entry): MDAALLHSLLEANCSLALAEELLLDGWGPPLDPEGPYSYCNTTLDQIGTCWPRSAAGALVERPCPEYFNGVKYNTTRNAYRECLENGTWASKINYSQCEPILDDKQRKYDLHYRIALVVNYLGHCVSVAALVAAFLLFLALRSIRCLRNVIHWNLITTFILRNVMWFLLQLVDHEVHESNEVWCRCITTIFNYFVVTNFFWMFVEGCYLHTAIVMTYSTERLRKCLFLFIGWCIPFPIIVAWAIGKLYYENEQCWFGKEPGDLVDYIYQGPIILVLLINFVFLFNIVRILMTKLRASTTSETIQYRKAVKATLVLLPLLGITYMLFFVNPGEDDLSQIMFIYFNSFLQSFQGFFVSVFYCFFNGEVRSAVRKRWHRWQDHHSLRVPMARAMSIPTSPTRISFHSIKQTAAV
T2 sequence (P24387 whole entry): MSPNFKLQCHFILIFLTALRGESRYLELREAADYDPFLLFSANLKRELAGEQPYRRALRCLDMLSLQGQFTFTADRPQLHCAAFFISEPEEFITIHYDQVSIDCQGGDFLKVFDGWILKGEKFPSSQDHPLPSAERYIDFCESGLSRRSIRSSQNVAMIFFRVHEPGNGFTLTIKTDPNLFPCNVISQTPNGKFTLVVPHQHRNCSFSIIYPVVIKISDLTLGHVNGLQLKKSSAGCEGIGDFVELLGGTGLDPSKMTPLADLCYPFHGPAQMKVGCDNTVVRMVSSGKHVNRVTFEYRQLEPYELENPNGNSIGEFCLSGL

[11] = blockers of HIV-1 envelope-mediated cell-cell fusion – cherry-pick, dose response (AID 652057); type: functional, cell-based
[12] = viability loss in CEM21 cells – cell-based, CellTiter-Glo luminescence, cherry-picked, cytotoxicity control for viral fusion inhibitor project, dose response (AID 652042); type: functional;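 further: potency for signal decrease meaning cytotoxicity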
[13] = blockers of HIV-1 ZM109 envelope-driven cell-cell fusion – HeLa effector, CEM target cells, luciferase, cherry-pick, dose response (AID 652058); type: functional, cell-based;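 further: luciferase signal from HIV-1 Env mediated cell-cell fusion of effector and target cells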
Paired box protein Pax-8 = Paired box protein Pax-8 (Homo sapiens, UniProt Q06710); experiment: PAX8 transcriptional activity inhibition in RMG-I – RMG-I cells, luciferase, cherry-pick, dose response (AID 687027); type: functional, cell-based;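 further: luciferase reporter driven by Pax8 target thyroperoxidase promoter measured by SteadyGlo luminescence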
Chain of Paired box protein Pax-8 (Q06710 whole entry, the tested form may be a part): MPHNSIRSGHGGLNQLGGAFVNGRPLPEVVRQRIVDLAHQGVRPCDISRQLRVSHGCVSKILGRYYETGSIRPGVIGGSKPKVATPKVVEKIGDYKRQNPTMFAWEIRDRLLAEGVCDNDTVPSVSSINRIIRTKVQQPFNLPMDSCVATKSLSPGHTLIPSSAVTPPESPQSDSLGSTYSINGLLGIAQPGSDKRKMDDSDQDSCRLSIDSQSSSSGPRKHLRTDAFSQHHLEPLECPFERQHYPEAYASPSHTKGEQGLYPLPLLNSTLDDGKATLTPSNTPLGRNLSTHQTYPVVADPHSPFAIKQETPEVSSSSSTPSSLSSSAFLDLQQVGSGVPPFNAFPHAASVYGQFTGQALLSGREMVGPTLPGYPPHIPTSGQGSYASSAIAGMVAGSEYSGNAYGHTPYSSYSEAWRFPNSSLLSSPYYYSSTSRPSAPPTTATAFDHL

[14] = off-target signal loss in HeLa-CEM21 co-culture – HeLa F-luc CTL cells, cherry-picked, counter-screen for HIV-1 Env fusion inhibitor project, dose response (AID 652040); type: functional, cell-based;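 further: potency for signal decrease marking cytotoxic or nonspecific inhibition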
[15] = HIV-1 AD8 envelope cell-cell fusion blockers – cherry-pick, dose response (AID 652062); type: functional, cell-based;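 further: luciferase signal from cell-cell fusion driven by HIV-1 clade B AD8 Env; potency is for inhibitors of fusion seen as a drop in luminescence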
[16] = A549 cell cytotoxicity, dose response, cytotoxicity control, plate reader, cherry-pick, antagonist series (AID 743412); type: functional, cell-based
[17] = toxicity toward HepG2 liver cells – cell-based, plate reader, cherry-pick, antagonist series, cytotoxicity control, dose response (AID 743416); type: functional
[18] = blockers of bursicon-stimulated LGR2 cAMP reporter – cell-based, HEK293, CRE-luciferase reporter, cherry pick, set 2, dose response (AID 743343); type: functional;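 further: transfected cells were stimulated with diluted bursicon conditioned medium after compound addition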
[19] = general cell-killing toxicity readout – plate reader, dry powder samples, cytotoxicity control for PAX8 inhibitor project, dose response (AID 743021); type: functional, cell-based
[20] = blockade of melanocortin 4 receptor signaling – cell-based, plate reader, cherry pick, counter-screen for LGR2 antagonist project, dose response (AID 743444); type: functional;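 further: transfected HEK 293 cells stimulated with alpha-MSH peptide; potency of inhibitors of the alpha-MSH evoked signal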
[21] = viability loss in HEK293 cells – cell-based, plate reader, cherry-picked samples, cytotoxicity control, dose response (AID 743446); type: functional
[22] = Luminescence Cell-Based Dose Response HTS to Identify Inhibitors of 5'UTR Stem-Loop Driven Prion Protein mRNA Translation in H4 Neuroglioblastoma Cells. [Related pubchem assays: 1827 (Project Summary), 1813 (Primary HTS)]; type: functional
[23] = biological target: T3, Heat shock factor protein 1 (Mus musculus, UniProt P38532); experiment: decrease of HSF1-responsive luciferase luminescence – cell-based, NIH3T3, dose retest, confirmation (AID 2382); type: functional;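 further: NIH3T3 fibroblasts with HSF1-driven luciferase reporter stressed by proteasome inhibitor MG132; luminescence from HSF1-driven luciferase expression after 8 hours of MG132 stress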
T3 sequence (P38532 whole entry): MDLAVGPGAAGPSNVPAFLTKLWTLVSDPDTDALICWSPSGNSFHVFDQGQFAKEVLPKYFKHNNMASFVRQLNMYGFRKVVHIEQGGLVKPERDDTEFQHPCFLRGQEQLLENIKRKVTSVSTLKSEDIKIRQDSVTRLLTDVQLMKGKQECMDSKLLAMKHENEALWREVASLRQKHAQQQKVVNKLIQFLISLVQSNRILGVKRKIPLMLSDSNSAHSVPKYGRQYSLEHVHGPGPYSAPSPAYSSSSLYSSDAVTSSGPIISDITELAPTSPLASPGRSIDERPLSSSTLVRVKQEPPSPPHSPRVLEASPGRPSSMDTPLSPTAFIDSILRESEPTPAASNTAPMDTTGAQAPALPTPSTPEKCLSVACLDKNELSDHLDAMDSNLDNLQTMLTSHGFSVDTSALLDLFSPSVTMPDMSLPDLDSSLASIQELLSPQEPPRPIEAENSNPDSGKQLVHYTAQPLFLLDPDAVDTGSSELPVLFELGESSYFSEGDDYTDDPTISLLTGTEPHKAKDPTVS

[24] = alpha-synuclein stem-loop luciferase translation blockers – H4 neuroglioma cells, luminescence, confirmation (AID 1988); type: functional, cell-based

Chain of Estrogen receptor beta (Q92731 whole entry, the tested form may be a part): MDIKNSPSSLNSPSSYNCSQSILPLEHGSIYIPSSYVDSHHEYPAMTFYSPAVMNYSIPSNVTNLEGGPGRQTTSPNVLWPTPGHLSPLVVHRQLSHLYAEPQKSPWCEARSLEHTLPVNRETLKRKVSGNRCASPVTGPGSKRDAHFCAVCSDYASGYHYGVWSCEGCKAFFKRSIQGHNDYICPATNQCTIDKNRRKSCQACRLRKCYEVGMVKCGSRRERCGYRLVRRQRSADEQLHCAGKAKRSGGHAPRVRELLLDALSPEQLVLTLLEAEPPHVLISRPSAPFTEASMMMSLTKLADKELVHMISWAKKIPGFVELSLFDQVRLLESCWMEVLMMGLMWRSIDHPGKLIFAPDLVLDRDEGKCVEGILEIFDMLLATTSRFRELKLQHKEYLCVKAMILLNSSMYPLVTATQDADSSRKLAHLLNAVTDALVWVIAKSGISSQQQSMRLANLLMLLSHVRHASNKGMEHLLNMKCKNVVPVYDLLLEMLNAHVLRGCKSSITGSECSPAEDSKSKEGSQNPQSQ

## O=C(OCC(=O)N1CCCC1)c1cncc(Br)c1
Estrogen receptor beta
  IC50: > 50 µM (not active)

## Cc1ccc(C(=S)NCS(=O)(=O)c2ccc(C)cc2)cc1
[1]
  IC50: 14.5 µM (inactive)

## CCCCn1c(SCc2nc(N)nc(Nc3ccccc3C)n2)nc2ccccc2c1=O
[2]
  IC50: > 69.5 µM (inactive)
[1]
  IC50: > 69.5 µM (inactive)

## O=C(Cc1ccc(-n2c(=O)c3ccccc3n(Cc3ccccc3Cl)c2=O)cc1)NCC1CCCO1 (configuration not stated)
[3]
  EC50: 8.14 µM (not active)
[4]
  EC50: > 112 µM (not active)
[5]
  EC50: > 112 µM (not active)

## O=C(Cn1cnc2ccccc21)Nc1cccc([N+](=O)[O-])c1
[6]
  IC50: 3.47 µM (active)
[7]
  IC50: 83.1 µM (inactive)
[8]
  IC50: 1.76 µM (active)
[9]
  IC50: > 83.3 µM (inactive)

## COc1ccc2[nH]c3c(N4CC(C)OC(C)C4)ncnc3c2c1 (configuration not stated)
[3]
  EC50: 7.39 µM (not active)

## COc1ccc2[nH]c3nc(SCC(=O)Nc4ccc5c(c4)OCO5)nnc3c2c1
[6]
  IC50: 1.33 µM (active)
[7]
  IC50: 24.5 µM (inactive)
[8]
  IC50: 0.489 µM (active)
[9]
  IC50: 36.6 µM (inactive)

## CC(C)CC(OC(=O)c1cccs1)C(=O)NCc1ccco1 (configuration not stated)
Estrogen receptor beta
  IC50: > 50 µM (not active)

## C(=Cc1cnc2ccccc2n1)c1ccc2c(c1)OCO2
HEK293
  AC50: 0.173 µM (active)
[10]
  EC50: > 53 µM (inactive)
[11]
  AC50: 2.05 µM (active)
[12]
  AC50: 42.1 µM (active)
[13]
  AC50: 13.5 µM (active)
Paired box protein Pax-8
  AC50: 2.92 µM (active)
[14]
  AC50: 4.37 µM (active)
[15]
  AC50: 3.91 µM (active)
[16]
  AC50: 10.7 µM (active)
[17]
  AC50: 24.6 µM (active)
[18]
  AC50: 0.263 µM (active)
[19]
  AC50: 6.27 µM (active)
[20]
  AC50: 0.25 µM (active)
[21]
  AC50: 17 µM (active)

## Cc1ccc(-c2nc(-c3ccccc3)no2)c(Cl)c1
[22]
  EC50: 8.33 µM (active)
[23]
  EC50: < 0.16 µM (active)
[24]
  EC50: 9.82 µM (inconclusive)
[16]
  AC50: > 52 µM (inactive)
[17]
  AC50: > 52 µM (inactive)
[18]
  AC50: 0.842 µM (active)
[20]
  AC50: 1.26 µM (active)
[21]
  AC50: 39.7 µM (active)

## CC(C)(C)[C@@H]1C=C(C(=O)NCc2nc3ccccc3[nH]2)O[C@H](OCc2ccc(CO)cc2)C1
[9]
  IC50: > 83.3 µM (inactive)

## CC(C)(C)c1ccc(-c2nnc(SCC(=O)Nc3ccc(S(=O)(=O)Nc4nccs4)cc3)n2-c2ccc(Cl)cc2)cc1
[2]
  IC50: 10.6 µM (inactive)
[1]
  IC50: > 69.5 µM (inactive)
